Experiment in all cases: NCI-60 cell line screen, 48 h
Experiment [1] has as its system SN12K1 renal.
Experiment [2] has as its system LXFL 529 NSCLC.
Experiment [3] has as its system RXF-631 renal.

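48-hour exposure; five concentrations; linearly interpolated endpoints. At the TGI there is no net growth.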

This note sets out measurements from PubChem BioAssay (NCI).

In turn, `CC1=CC2=C(C=O)C(=O)[C@](C)(O)[C@@H](O)C2=CO1` displayed a TGI in experiment [1] above 100 µM.

For the compound `C=C1C(=O)OC2/C=C(\CO)C3OC3C3OC3(C)CC(OC(=O)/C(=C/C)COC(C)=O)C12` (stereo not drawn), in experiment [2], the TGI was 2.17 µM.

For the compound `COc1ccc2[nH]c(=O)cc(C)c2c1[N+](=O)[O-]`, the TGI in experiment [2] and in experiment [3] was above 100 µM each time.

Turning to `Cc1c2cnccc2c(C)c2c1c1ccccc1n2CCCCCCCl`, the TGI in experiment [1] was above 50 µM.

Take `O=C1Sc2sc(=S)sc2SC1c1ccccc1` (stereo not drawn): the TGI in experiment [1] is above 65.2 µM.

With `C=C1C(=O)OC2/C=C(CO)/C=C\C3OC3(C)CC(OC(=O)/C(C)=C/COC(C)=O)C12` (stereo not drawn), the TGI in experiment [2] was 4.27 µM; in experiment [3], 12.1 µM.
